Patent US10501479B2, “Benzenesulfonyl-asymmetric ureas and medical uses thereof” (HELSINN HEALTHCARE SA, priority 2016, dated 2019)
Like-named read-outs stand apart in the source and are kept apart here.

Key:
[1] = target: T1, recombinant human ghrelin receptor (HEK293/GRLN) (Homo sapiens, UniProt Q92847); assay: Ghrelin inverse agonist potency (EC50) with IP-1 (IP-One HTRF) assay; assay type: cell-based; conditions: IP-1 assay
T1 construct: expressed in transfected cells
In short: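 HEK293/GRLN cells were seeded 18-22 hours before the test, then exposed to compound in stimulation buffer for 1 hour at 37° C, 5% CO2. IP-1 was detected by IP-One HTRF (IP1-d2 plus Tb-cryptate, 1 hour RT), reading 620 and 665 nm; the inverse agonist EC50 was derived from this.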

[2] = target: T2, GHSR-1a (HEK293/GHSR1a cell line) (Homo sapiens, UniProt Q92847); assay: Ghrelin antagonist potency (IC50) with calcium FLIPR assay, ghrelin 10 nM; assay type: cell-based
T2 construct: expressed in transfected cells; host or cells: HEK293/GHSR1a cell line
In short: (§1)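 Dye preload 30-60 min, RT or 37° C; compound in DMSO. Agonist mode: compound at t=20 sec, Ca2+ read 2 min. Antagonist mode: compound + ghrelin 10 nM at t=20 sec, 2 min read. EC50/IC50 from dose-response curves.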

[3] = Metabolic stability in human liver microsomes; assay type: in vitro ADME
Description: (§2) Metabolic Stability Study
(§3) The metabolic stability of compounds in human, dog, rat and mouse liver microsomes was performed according the experimental conditions reported below:
(§4) • a) Prepare the following 5 stock solutions: • 1. Test compound stock solutions: dilute 10 mM solution of dextromethorphan (Dtr) in DMSO, 10 mM solution of diphenhydramine (DPA) in DMSO, 10 mM solution of omeprazole (Ome) in DMSO, 10 mM solution of verapamil (Ver) in DMSO, and 10 mM of an inverse agonist compound in DMSO to 0.25 mM solution each with acetonitrile/water (70/30). • 2. Buffer: 100 mM potassium phosphate Buffer (PBS) at pH 7.4 • 3. Liver microsomes (20 mg/ml): Thaw in 37° C. water bath quickly • 4. 2000 μL: of NADPH regenerating system (1.3 mM). Place this system on ice before use:
(§5) • 5. […] The test compound concentration in the wells, measured by LC-MS/MS, represents the concentration at time=0. • f) To determine the test compound concentration when t≠0, pre-incubate the NADPH regenerating system and the incubation plate containing the remaining 320 μL of incubation mixture (microsomes protein and test compound) for 5 minutes at 37° C. • g) Start the incubation reaction by adding 80 μL NADPH regenerating system to each well containing the remaining 320 μL incubation mixture. • h) After 10 min., 30 min., and 90 min. of incubation at 37° C., transfer 100 μL of the incubation mixture (microsomes protein, test compound, and NADPH) into the wells of a stop plate pre-filled with 300 μL of the cold quench solution. Shake well. • i) Centrifuge the stop plate at 5000×g for 10 minutes. Collect and dilute the supernatant 3 times with distilled water. Sample and analyze the test compound concentration for all the wells by LC-MS/MS. Animal PK Studies via i.v. (intravenous), p.o. (orally) and s.c. (subcutaneous) administrations

[4] = Metabolic stability in mouse liver microsomes; assay type: in vitro ADME
Description: as §2, §3, §4, §5

[5] = Animal PK study in mouse via i.v., p.o. and s.c. administration; assay type: in vivo; conditions: for PK CLiv / PK Vdiv / PK t1/2iv: i.v.; for PK CLpo / PK Vdpo / PK t1/2po: p.o.
Description: All treated animals received a single dose of a test compound (either through i.v., p.o., or s.c. administration) according to the regimen shown in the following table:
For oral dose groups, appropriate amount of test compound was prepared in the following formulation carrier: 1% DMSO (increase to 5% maximum if necessary) and 0.5% Methycellulose. Each mouse or rat received by oral gavage 10 mL/kg of the formulation mixture.
For i.v. and s.c dose groups, appropriate amount of test compound was dissolved in 1% DMSO (increase to 5% maximum if necessary), 99% of 20% HP-β-Cyclodextron (w/v). The pH was adjusted accordingly. Each mouse or rat received 5 mL/kg of the formulation mixture. i.v. dose was administered by tail vein injection. Subcutaneous injection was administered over the shoulders, into the loose skin over the neck. At designated time points (e.g., i.v. and s.c.: 0.083, 0.25, 0.5, 1, 2, 4, 8 and 24 hrs; p.o.: 0.25, 0.5, 1, 2, 4, 8 and 24 hrs), systemic samples of blood (50 μL in mouse or 500 μL in rat) were collected by puncture (submandibular vein in mouse or jugular vein in rat) into vacutainers containing EDTA-K2 as anti-coagulant. The blood was centrifuged at 6000 rpm for 8 min at 4° C. to obtain plasma. All plasma samples were stored at −20° C. All plasma samples were added to acetonitrile for protein precipitation and quantitatively analyzed by LC-MS/MS.

[6] = target: T2, GHSR-1a (HEK293/GHSR1a cell line); assay: Ghrelin agonist potency (EC50) with calcium FLIPR assay; assay type: cell-based; conditions: ghrelin agonist potency, read-out: Activity EC50/EMax
In short: as §1

[7] = inverse agonist potency, read-out: EC50 (Activity)
[8] = ghrelin antagonist potency, read-out: IC50 (Activity)
[9] = ghrelin inverse agonist potency, read-out: Activity EC50
[10] = ghrelin antagonist potency, read-out: Activity IC50

T1 sequence (Q92847 whole entry): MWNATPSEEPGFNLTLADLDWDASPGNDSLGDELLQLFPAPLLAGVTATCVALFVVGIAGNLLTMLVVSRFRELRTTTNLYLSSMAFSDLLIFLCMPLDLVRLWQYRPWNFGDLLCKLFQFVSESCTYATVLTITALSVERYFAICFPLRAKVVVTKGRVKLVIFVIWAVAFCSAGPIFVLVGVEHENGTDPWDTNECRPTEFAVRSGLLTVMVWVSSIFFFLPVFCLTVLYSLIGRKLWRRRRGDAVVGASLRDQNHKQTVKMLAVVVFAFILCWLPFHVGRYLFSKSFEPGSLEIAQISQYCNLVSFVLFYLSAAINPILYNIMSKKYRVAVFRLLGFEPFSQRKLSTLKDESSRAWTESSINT
T2 sequence (Q92847 whole entry): as above

SMILES	Metabolic Stability Study H = human [3]	EC50 [1, 9]	EC50 [6]	IC50 [2, 10]	further results
C[C@H](NC(=O)Nc1ccc(S(=O)(=O)N(C)c2ccc(CC(C)(C)N)cc2)cc1)c1cccc(Cl)c1Cl.Cl [H0971, (S)-N-(4-(2-amino-2-methylpropyl)phenyl)-4-(3-(1-(2,3-dichlorophenyl)ethyl)ureido)-N-methylbenzenesulfonamide]	31.9 µL/min/mg	–	–	–	EC50 [1, 7]: 135 nM; IC50 [2, 8]: 417 nM; Metabolic Stability Study M = mouse [4]: 24.8 µL/min/mg
C[C@H](NC(=O)Nc1ccc(S(=O)(=O)Nc2ccc3c(c2)CCNC3)cc1)c1cccc(Cl)c1Cl.Cl [H1004, (S)-4-(3-(1-(2,3-dichlorophenyl)ethyl)ureido)-N-(1,2,3,4-tetrahydroisoquinolin-6-yl)benzenesulfonamide]	–	–	–	–	EC50 [1, 7]: 3.97 nM; IC50 [2, 8]: 3.7 nM; PK F [5]: 13%; PK CLiv [5]: 592 mL/min/kg; PK Vdiv [5]: 37.7 L/kg; PK t1/2iv [5]: 0.74 h; PK CLpo [5]: 3732 mL/min/kg; PK Vdpo [5]: 479.2 L/kg; PK t1/2po [5]: 1.48 h
COc1ccc([C@H](C)NC(=O)Nc2ccc(S(=O)(=O)Nc3ccc4c(c3)CCNC4)cc2)c(Cl)c1Cl.Cl [H1005, (S)-4-(3-(1-(2,3-dichloro-4-methoxyphenyl)ethyl)ureido)-N-(1,2,3,4-tetrahydroisoquinolin-6-yl)benzenesulfonamide]	–	–	–	–	EC50 [1, 7]: 8.88 nM; IC50 [2, 8]: 19.8 nM; PK F [5]: 1.3%; PK CLiv [5]: 7.33 mL/min/kg; PK Vdiv [5]: 1.46 L/kg; PK t1/2iv [5]: 2.3 h; PK CLpo [5]: 555.5 mL/min/kg; PK Vdpo [5]: 112.3 L/kg; PK t1/2po [5]: 2.33 h
CCOC(=O)N1CCc2cc(NS(=O)(=O)c3ccc(NC(=O)N[C@@H](C)c4cccc(Cl)c4Cl)cc3)ccc2C1 [H1054, ethyl (S)-6-((4-(3-(1-(2,3-dichlorophenyl)ethyl)ureido)phenyl)sulfonamido)-3,4-dihydroisoquinoline-2(1H)-carboxylate]	–	–	–	–	IC50 [2, 8]: 10100 nM; PK F [5]: 3.0%; PK CLiv [5]: 27 mL/min/kg; PK Vdiv [5]: 4.32 L/kg; PK t1/2iv [5]: 1.85 h; PK CLpo [5]: 898 mL/min/kg; PK Vdpo [5]: 96.2 L/kg; PK t1/2po [5]: 1.24 h
O=C(NCc1ccccc1)Nc1ccc2c(c1)CC(c1ccc3c(c1)CNC3)S2(=O)=O (centres unmarked) [H1271, 1-benzyl-3-(2-(isoindolin-5-yl)-1,1-dioxido-2,3-dihydrobenzo[b]thiophen-5-yl)urea]	H < 10 M < 10 R = not reported D = not reported μL/min/mg	–	–	–	IC50 ([2]; HEK293/GHSR1a, ghrelin 10 nM, read-out: Activity IC50 (ghrelin antagonist potency)): 5 nM; Metabolic Stability Study M = mouse [4]: H < 10 M < 10 R = not reported D = not reported μL/min/mg
CC(c1ccccc1F)N(O)C(=O)Nc1ccc(S(=O)(=O)Cc2ccc3c(c2)CNC3)cc1.Cl (centres unmarked) [H1490, 1-(1-(2-fluorophenyl)ethyl)-1-hydroxy-3-(4-((isoindolin-5-ylmethyl)sulfonyl)phenyl)urea]	H = 12.8 μL/min/mg	3.6 nM	> 30000 nM	5.43 nM	–
CC(c1ccccc1F)N(O)C(=O)Nc1ccc(S(=O)(=O)Cc2ccc3c(c2)CN(C)C3)cc1 (centres unmarked) [H1491, 1-(1-(2-fluorophenyl)ethyl)-1-hydroxy-3-(4-(((2-methylisoindolin-5-yl)methyl)sulfonyl)phenyl)urea]	H = 79.5 μL/min/mg	4.6 nM	> 30000 nM	29.7 nM	–
CC(NC(=O)Nc1ccc(S(=O)(=O)Cc2ccc3c(c2)CNC3)c(F)c1)c1ccccc1.Cl (centres unmarked) [H1492, 1-(3-fluoro-4-((isoindolin-5-ylmethyl)sulfonyl)phenyl)-3-(1-phenylethyl)urea]	H = 24.4 μL/min/mg	5.1 nM	> 30000 nM	36.3 nM	–
Cc1cc(NC(=O)NC(C)c2ccccc2)ccc1S(=O)(=O)Cc1ccc2c(c1)CNC2 (centres unmarked) [H1493, 1-(4-((isoindolin-5-ylmethyl)sulfonyl)-3-methylphenyl)-3-(1-phenylethyl)urea]	H = 21.5 μL/min/mg	4.2 nM	> 30000 nM	15.3 nM	–
CC(NC(=O)Nc1ccc(S(=O)(=O)Cc2ccc3c(c2)CNC3)c(Cl)c1)c1ccccc1 (centres unmarked) [H1494, 1-(3-chloro-4-((isoindolin-5-ylmethyl)sulfonyl)phenyl)-3-(1-phenylethyl)urea]	H = 19.1 μL/min/mg	4 nM	> 30000 nM	10.6 nM	–
COc1cc(S(=O)(=O)Cc2ccc3c(c2)CNC3)ccc1NC(=O)N(O)C(C)c1cccc(Cl)c1Cl (centres unmarked) [H1495, 1-(1-(2,3-dichlorophenyl)ethyl)-1-hydroxy-3-(4-((isoindolin-5-ylmethyl)sulfonyl)-2-methoxyphenyl)urea]	H = 21.1 μL/min/mg	1.2 nM	> 30000 nM	2.16 nM	–
COc1cc(S(=O)(=O)Cc2ccc3c(c2)CN(C)C3)ccc1NC(=O)N(O)C(C)c1cccc(Cl)c1Cl (centres unmarked) [H1496, 1-(1-(2,3-dichlorophenyl)ethyl)-1-hydroxy-3-(2-methoxy-4-(((2-methylisoindolin-5-yl)methyl)sulfonyl)phenyl)urea]	H = 178.3 μL/min/mg	2.5 nM	> 30000 nM	5.91 nM	–
CNC(=O)c1cc(S(=O)(=O)Cc2ccc3c(c2)CNC3)ccc1NC(=O)NC(C)c1ccccc1 (centres unmarked) [H1499, 5-((isoindolin-5-ylmethyl)sulfonyl)-N-methyl-2-(3-(1-phenylethyl)ureido)benzamide]	H = 27.1 μL/min/mg	7.1 nM	> 30000 nM	38 nM	–
CC(NC(=O)Nc1ccc(S(=O)(=O)Cc2ccc3c(c2)CNC3)cc1-c1ncco1)c1ccccc1 (centres unmarked) [H1500, 1-(4-((isoindolin-5-ylmethyl)sulfonyl)-2-(oxazol-2-yl)phenyl)-3-(1-phenylethyl)urea]	H = 61.4 μL/min/mg	6.2 nM	> 30000 nM	16.4 nM	–
CC(NC(=O)Nc1ccc(S(=O)(=O)Cc2ccc3c(c2)CN(C)C3)cc1-c1ncco1)c1ccccc1 (centres unmarked) [H1501, 1-(4-(((2-methylisoindolin-5-yl)methyl)sulfonyl)-2-(oxazol-2-yl)phenyl)-3-(1-phenylethyl)urea]	H = 319.6 μL/min/mg	18.1 nM	> 30000 nM	119 nM	–
CC(NC(=O)Nc1ccc(S(=O)(=O)Cc2ccc3c(c2)CNC3)c(Br)c1)c1ccccc1 (centres unmarked) [H1504, 1-(3-bromo-4-((isoindolin-5-ylmethyl)sulfonyl)phenyl)-3-(1-phenylethyl)urea]	H = 19.3 μL/min/mg	5.55 nM	> 30000 nM	6.47 nM	–
